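In this assay, cells in 96-well plates receive the compound at five concentrations for 48 hours. Endpoints are linearly interpolated between the surrounding concentrations. Abbreviation: GI50, concentration required for 50% inhibition of growth.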 Activity calls are given as the source filed them. Rule as the data show it: active = GI50 up to about 1.1 µM and inactive = higher.
How the values were obtained:
Test in all cases: DTP human tumour cell line panel, 48 h
NCI-H460 = tested on: NCI-H460
HCT-116 = tested on: HCT-116
PC-3 = tested on: PC-3
KM12 = tested on: KM12
HL-60 = tested on: HL-60
SF-539 = tested on: SF-539
MDA-N = tested on: MDA-N
SW-620 = tested on: SW-620
Hs-578T = tested on: Hs-578T
UACC-257 = tested on: UACC-257
SF-268 = tested on: SF-268
LOX IMVI = tested on: LOX IMVI
U-251 = tested on: U-251
RPMI-8226 = tested on: RPMI-8226
UACC-62 = tested on: UACC-62
COLO 205 = tested on: COLO 205
CAKI-1 = tested on: CAKI-1

Measured: GI50

CO/C(=C/C(=O)C(Cl)(Cl)Cl)CC/C(=C\C(=O)C(Cl)(Cl)Cl)OC
inactive: NCI-H460 29.1 µM | HCT-116 18.8 µM | PC-3 27.4 µM | KM12 27.7 µM | HL-60 26.4 µM | SF-539 23.6 µM | MDA-N 22.8 µM | SW-620 53 µM | Hs-578T 35.9 µM | UACC-257 19.2 µM | SF-268 26.1 µM | LOX IMVI 19.6 µM | U-251 22.8 µM | RPMI-8226 22.3 µM | UACC-62 22 µM | COLO 205 40.7 µM | CAKI-1 24.9 µM

Cc1ccc([S+]([O-])c2sccc2C=O)cc1 (stereo not given)
inactive: NCI-H460 21.9 µM | HCT-116 16.4 µM | PC-3 34 µM | KM12 27.7 µM | HL-60 21 µM | SF-539 21 µM | MDA-N 27.6 µM | SW-620 24.2 µM | Hs-578T 24.4 µM | UACC-257 53.5 µM | SF-268 28.8 µM | LOX IMVI 14.4 µM | U-251 18.9 µM | RPMI-8226 31 µM | UACC-62 19.3 µM | COLO 205 41 µM | CAKI-1 > 100 µM

CC1CC(=O)N2CCCNC2=C1C#N (stereo not given)
inactive: NCI-H460 > 100 µM | HCT-116 > 100 µM | PC-3 > 100 µM | KM12 > 100 µM | HL-60 > 10 µM | SF-539 > 100 µM | MDA-N > 100 µM | SW-620 > 100 µM | Hs-578T > 100 µM | UACC-257 > 100 µM | SF-268 > 100 µM | LOX IMVI > 100 µM | U-251 > 100 µM | RPMI-8226 > 100 µM | UACC-62 > 100 µM | COLO 205 > 100 µM | CAKI-1 > 100 µM

CP(C)(=S)P(C)(C)=S
inactive: NCI-H460 > 100 µM | HCT-116 > 100 µM | PC-3 > 100 µM | HL-60 > 100 µM | SF-539 > 100 µM | MDA-N > 100 µM | SW-620 > 100 µM | Hs-578T > 100 µM | UACC-257 > 100 µM | SF-268 > 100 µM | LOX IMVI 4.37 µM | U-251 > 100 µM | RPMI-8226 > 100 µM | UACC-62 > 100 µM | COLO 205 > 100 µM | CAKI-1 > 100 µM

COc1c(/C=C/C=O)cc2c(c1OC)OCO2
inactive: NCI-H460 14.7 µM | HCT-116 34 µM | PC-3 34.5 µM | KM12 12 µM | HL-60 23.6 µM | SF-539 35 µM | MDA-N 24.5 µM | SW-620 51.2 µM | Hs-578T 55.8 µM | UACC-257 48.1 µM | SF-268 41.1 µM | LOX IMVI 24.5 µM | U-251 23.2 µM | RPMI-8226 14.3 µM | UACC-62 19.3 µM | COLO 205 > 100 µM | CAKI-1 5.21 µM

COc1c2c(nc3ccccc13)-c1cc(C(CC(=O)OC(C)(C)C)C(=O)OC(C)C)c(CO)c(=O)n1C2 (stereo not given)
inactive: NCI-H460 10.4 µM | HCT-116 37 µM | PC-3 > 86.1 µM | KM12 > 100 µM | HL-60 > 25.2 µM | SF-539 36.9 µM | MDA-N > 100 µM | SW-620 > 96.6 µM | Hs-578T > 75.3 µM | UACC-257 > 100 µM | SF-268 > 62.8 µM | LOX IMVI 32.4 µM | U-251 42.5 µM | RPMI-8226 21.3 µM | UACC-62 17.8 µM | COLO 205 88.5 µM | CAKI-1 4.22 µM

N#Cc1c(C#N)c(-c2ccccc2)n(Cc2ccccc2)c1N
inactive: HCT-116 > 100 µM | PC-3 > 100 µM | KM12 > 100 µM | HL-60 > 100 µM | SF-539 26 µM | MDA-N > 100 µM | SW-620 > 100 µM | Hs-578T 25.6 µM | UACC-257 > 100 µM | SF-268 47.2 µM | LOX IMVI > 100 µM | U-251 80.5 µM | RPMI-8226 > 100 µM | UACC-62 > 100 µM | COLO 205 > 100 µM | CAKI-1 > 100 µM

Clc1cccc(N/N=N/c2ccc(-c3nc4ccccc4s3)cc2)c1
inactive: NCI-H460 50.9 µM | HCT-116 32.7 µM | PC-3 41.6 µM | KM12 > 100 µM | HL-60 6.34 µM | SF-539 82.8 µM | MDA-N 26.4 µM | SW-620 33.7 µM | Hs-578T > 100 µM | UACC-257 > 100 µM | LOX IMVI 53 µM | U-251 36.9 µM | RPMI-8226 58.7 µM | UACC-62 25.2 µM | COLO 205 > 100 µM | CAKI-1 53.8 µM

COC(=O)C[C@H](COCc1ccccc1)NC(=O)C[C@H](COCc1ccccc1)NC(=O)C[C@H](COCc1ccccc1)NC(=O)OC(C)(C)C
inactive: HCT-116 14.5 µM | PC-3 13.2 µM | KM12 > 100 µM | HL-60 > 100 µM | SF-539 95.3 µM | MDA-N > 100 µM | SW-620 > 100 µM | Hs-578T 34.6 µM | SF-268 41.5 µM | LOX IMVI 58.7 µM | U-251 94 µM | RPMI-8226 > 100 µM | UACC-62 > 100 µM | COLO 205 > 100 µM | CAKI-1 > 100 µM

CSc1c(C#N)c(O)n(-c2ccc(C)cc2)c(=O)c1C#N
inactive: NCI-H460 > 100 µM | HCT-116 > 100 µM | PC-3 > 100 µM | KM12 > 100 µM | HL-60 > 100 µM | SF-539 > 100 µM | MDA-N > 100 µM | SW-620 > 100 µM | Hs-578T > 100 µM | UACC-257 > 100 µM | SF-268 > 100 µM | LOX IMVI > 100 µM | U-251 > 100 µM | RPMI-8226 > 100 µM | UACC-62 > 100 µM | COLO 205 > 100 µM | CAKI-1 > 100 µM

Cc1cc(NS(=O)(=O)c2ccc(Nc3c4ccccc4nc4ccc(C(=O)Nc5ccc(S(N)(=O)=O)cc5)cc34)cc2)no1
inactive: NCI-H460 > 100 µM | HCT-116 > 100 µM | PC-3 > 100 µM | KM12 69 µM | HL-60 > 100 µM | SF-539 > 100 µM | MDA-N > 100 µM | SW-620 > 100 µM | Hs-578T > 100 µM | UACC-257 > 100 µM | SF-268 > 100 µM | LOX IMVI > 100 µM | U-251 57.4 µM | RPMI-8226 > 100 µM | UACC-62 > 100 µM | COLO 205 > 100 µM | CAKI-1 > 100 µM

NC1c2c(Br)sc(N3CCCC3)c2C(=O)C1O (stereo not given)
inactive: NCI-H460 > 50 µM | HCT-116 > 50 µM | PC-3 > 50 µM | KM12 > 50 µM | HL-60 > 50 µM | SF-539 > 50 µM | MDA-N > 50 µM | SW-620 > 50 µM | Hs-578T > 50 µM | UACC-257 > 50 µM | SF-268 > 50 µM | LOX IMVI > 50 µM | U-251 > 50 µM | UACC-62 > 50 µM | COLO 205 > 50 µM | CAKI-1 > 50 µM

C[C@@H]1S[C@H](c2c(Cl)cccc2Cl)N2Cc3ccccc3N=C12
inactive: NCI-H460 > 100 µM | HCT-116 11.5 µM | PC-3 > 100 µM | KM12 85.5 µM | HL-60 48.4 µM | SF-539 > 100 µM | MDA-N > 100 µM | SW-620 > 100 µM | Hs-578T > 100 µM | UACC-257 > 100 µM | SF-268 > 100 µM | LOX IMVI > 100 µM | U-251 > 100 µM | RPMI-8226 > 100 µM | UACC-62 97.3 µM | COLO 205 > 100 µM | CAKI-1 > 100 µM

O=C(NCCN(CCNC(=O)c1cccc(=O)n1O)CCN(CCNC(=O)c1cccc(=O)n1O)CCNC(=O)c1cccc(=O)n1O)c1cccc(=O)n1O
inactive: NCI-H460 > 100 µM | HCT-116 > 100 µM | PC-3 > 100 µM | KM12 > 100 µM | HL-60 44.2 µM | SF-539 > 100 µM | MDA-N > 100 µM | SW-620 > 100 µM | Hs-578T > 100 µM | UACC-257 > 100 µM | SF-268 > 100 µM | LOX IMVI > 100 µM | U-251 > 100 µM | RPMI-8226 > 100 µM | UACC-62 > 100 µM | COLO 205 > 100 µM | CAKI-1 > 100 µM

Cc1ccc(S(=O)(=O)NC(CO)C(=O)O)cc1 (stereo not given)
inactive: NCI-H460 > 100 µM | HCT-116 > 100 µM | PC-3 > 100 µM | KM12 > 100 µM | HL-60 > 100 µM | SF-539 > 100 µM | MDA-N > 100 µM | SW-620 > 100 µM | Hs-578T > 100 µM | UACC-257 > 100 µM | SF-268 > 100 µM | LOX IMVI > 100 µM | U-251 > 100 µM | RPMI-8226 > 100 µM | UACC-62 > 100 µM | COLO 205 > 100 µM | CAKI-1 > 100 µM

O=C(NNC(=O)c1ccncc1)c1ccncc1
inactive: NCI-H460 > 100 µM | HCT-116 > 100 µM | PC-3 > 100 µM | KM12 > 100 µM | HL-60 > 100 µM | MDA-N > 100 µM | SW-620 > 100 µM | Hs-578T > 100 µM | UACC-257 > 100 µM | SF-268 > 100 µM | LOX IMVI > 100 µM | U-251 > 100 µM | RPMI-8226 > 100 µM | UACC-62 > 100 µM | COLO 205 > 100 µM | CAKI-1 > 100 µM

Reference: ChEMBL document CHEMBL1201862, “PubChem BioAssay data set” (2004)
